Tests used:
Assay type in all cases: functional
[1] = system: Coptotermes formosanus; assay: Termiticidal activity against Coptotermes formosanus (third-instar worker and soldier) assessed as mortality at 1% wt/wt at 26.6 degC, 100% RH measured after 21 days (Rvb= 1.3 +/- 2.5%)
[2] = system: Coptotermes formosanus; assay: Termiticidal activity against Coptotermes formosanus (third-instar worker and soldier) assessed as mortality at 1% wt/wt at 26.6 degC, 100% RH measured after 15 days (Rvb= 1.3 +/- 2.5 to 5 +/- 4.1%)
[3] = system: Coptotermes formosanus; assay: Termiticidal activity against Coptotermes formosanus (third-instar worker and soldier) assessed as mortality at 1% wt/wt at 26.6 degC, 100% RH measured after 11 days (Rvb= 1.3 +/- 2.5%)
[4] = system: Coptotermes formosanus; assay: Termiticidal activity against Coptotermes formosanus (third-instar worker and soldier) assessed as mortality at 1% wt/wt at 26.6 degC, 100% RH measured after 4 days (Rvb= 0%)
[5] = system: Coptotermes formosanus; assay: Termiticidal activity against Coptotermes formosanus (third-instar worker and soldier) assessed as mortality at 1% wt/wt at 26.6 degC, 100% RH measured after 1 day (Rvb= 0%)
[6] = system: Coptotermes formosanus; assay: Termiticidal activity against Coptotermes formosanus (third-instar worker and soldier) assessed as mortality at 1% wt/wt at 26.6 degC, 100% RH measured after 8 days (Rvb= 1.3 +/- 2.5%)
[7] = system: Coptotermes formosanus; assay: Termiticidal activity against Coptotermes formosanus (third-instar worker and soldier) assessed as mortality at 1% wt/wt at 26.6 degC, 100% RH measured after 18 days (Rvb= 1.3 +/- 2.5%)
[8] = system: Coptotermes formosanus; assay: Termiticidal activity against Coptotermes formosanus (third-instar worker and soldier) assessed as mortality at 1% wt/wt at 26.6 degC, 100% RH measured after 17 days (Rvb= 5 +/- 4.1%)
[9] = system: Coptotermes formosanus; assay: Termiticidal activity against Coptotermes formosanus (third-instar worker and soldier) assessed as mortality at 1% wt/wt at 26.6 degC, 100% RH measured after 7 days (Rvb= 3.8 +/- 4.8%)
[10] = system: Coptotermes formosanus; assay: Termiticidal activity against Coptotermes formosanus (third-instar worker and soldier) assessed as mortality at 1% wt/wt at 26.6 degC, 100% RH measured after 21 days (Rvb= 1.3 +/- 2.5 to 5 +/- 4.1%)
[11] = system: Coptotermes formosanus; assay: Termiticidal activity against Coptotermes formosanus (third-instar worker and soldier) assessed as mortality at 0.5% wt/wt at 26.6 degC, 100% RH measured after 5 days
[12] = system: Coptotermes formosanus; assay: Termiticidal activity against Coptotermes formosanus (third-instar worker and soldier) assessed as mortality at 1% wt/wt at 26.6 degC, 100% RH measured after 3 days (Rvb= 0%)
[13] = system: Coptotermes formosanus; assay: Termiticidal activity against Coptotermes formosanus (third-instar worker and soldier) assessed as mortality at 1% wt/wt at 26.6 degC, 100% RH measured after 9 days (Rvb= 3.8 +/- 4.8%)

Row | Compound | mortality [1] [%] | mortality [2] [%] | mortality [3] [%] | mortality [4] [%] | mortality [5] [%] | mortality [6] [%] | mortality [7] [%] | mortality [8] [%] | mortality [9] [%] | mortality [10] [%] | mortality [11] [%] | mortality [12] [%] | mortality [13] [%]
1 | CC(C)NCCc1ccc2c(c1)C=CC(C)(C)O2.Cl | 15 | 7.5 | 5 | 3.8 | 3.75 | 3.8 | 8.8 | – | – | – | – | – | –
2 | COC(=O)c1ccc(OC)c2c1OC(C)(C)C=C2 | – | 96.3 | – | – | 0 | – | – | 100 | 30 | 100 | 100 | 2.5 | 61.3
3 | CC1(C)C=Cc2c(CO)cccc2O1 | 100 | 100 | 100 | 100 | 41.3 | 100 | 100 | – | – | – | 100 | – | –
4 | CC1(C)C=Cc2ccc(CO)cc2O1 | 100 | 100 | 100 | 100 | 26.3 | 100 | 100 | – | – | – | – | – | –
5 | CC1(C)C=Cc2cc(CO)ccc2O1 [EULATACHROMENE] | 100 | 100 | 100 | 40 | 1.3 | 92.5 | 100 | – | – | – | – | – | –
6 | CC1(C)C=Cc2cc(C(=O)O)ccc2O1 | 2.5 | 1.3 | 0 | 0 | 0 | 0 | 1.3 | – | – | – | – | – | –
7 | CC1(C)C=Cc2cc(CCO)ccc2O1 | 73.8 | 70 | 56.3 | 10 | 0 | 33.8 | 71.3 | – | – | – | – | – | –
8 | CNCCc1ccc2c(c1)C=CC(C)(C)O2.Cl | 3.8 | 2.5 | 1.3 | 0 | 0 | 0 | 2.5 | – | – | – | – | – | –
9 | COC(=O)c1cccc2c1C=CC(C)(C)O2 | 100 | 100 | 100 | 87.5 | 0 | 97.5 | 100 | – | – | – | – | – | –
10 | CC1(C)C=Cc2cc(C=O)ccc2O1 | 98.8 | 98.8 | 93.8 | 62.5 | 51.3 | 81.3 | 98.8 | – | – | – | – | – | –
11 | COC(=O)c1ccc2c(c1)C=CC(C)(C)O2 | 100 | 100 | 100 | 92.5 | 3.75 | 100 | 100 | – | – | – | – | – | –
12 | COC(=O)Cc1ccc2c(c1)C=CC(C)(C)O2 | 100 | 100 | 100 | 82.5 | 12.5 | 92.5 | 100 | – | – | – | – | – | –
13 | CC1(C)C=Cc2cc3c(cc2O1)OCO3 [6,6-DIMETHYL-6H-[1,3]DIOXOLO[4,5-G]CHROMENE] | – | 75 | – | – | 0 | – | – | 82.5 | 12.5 | 85 | – | 2.5 | 23.8
14 | CC(C)NCc1ccc2c(c1)C=CC(C)(C)O2.Cl | 88.8 | 80 | 72.5 | 20 | 8.8 | 55 | 88.8 | – | – | – | – | – | –
15 | COC(=O)c1ccc2c(c1)OC(C)(C)C=C2 | 100 | 100 | 100 | 100 | 32.5 | 100 | 100 | – | – | – | – | – | –
16 | CC(C)CC(=O)N(C)CCC1=CC2C=CC(C)(C)OC2C=C1 (configuration not stated) | 32.5 | 32.5 | 32.5 | 32.5 | 6.3 | 32.5 | 32.5 | – | – | – | – | – | –
17 | CC(=O)c1ccc2c(c1O)C=CC(C)(C)O2 | – | 100 | – | – | 0 | – | – | 100 | 66.3 | 100 | 100 | 1.3 | 98.8

— ChEMBL document CHEMBL3045559, “Natural-product-based chromenes as a novel class of potential termiticides” (2011)
